Laboratory results as given in article PMC10888103, “Enhanced High-Fructose Corn Syrup Production: Immobilizing Serratia marcescens Glucose Isomerase on MOF (Co)-525 Reduces Co^2+ Dependency in Glucose Isomerization to Fructose” (Foods, 2024).

Tested on: T1, Serratia marcescens glucose isomerase (SmGI)
T1 construct: gene xylA; native, from S. marcescens lysate; 70 °C heat step and 10 kD ultrafiltration only (no chromatography); main SDS-PAGE band about 60 kD
Experiment: fructose formation by fructose assay kit, Lineweaver-Burk; heat-treated, ultrafiltered extract
Type: biochemical
Details: free enzyme, no added Co2+; 60 °C, 1 h; glucose 2.5-400 mM; pH of kinetic assay not stated
Text: fructose formation by fructose assay kit, Lineweaver-Burk; heat-treated, ultrafiltered extract on Serratia marcescens glucose isomerase (SmGI)

## OC[C@H]1OC(O)[C@H](O)[C@@H](O)[C@@H]1O (stereo partly shown) [glucose]
  Km: 44.3 ± 3.1 mM
